According to PMC8191290, “Substrate specificities and reaction kinetics of the yeast oligosaccharyltransferase isoforms” (The Journal of Biological Chemistry, 2021):

Target: T1, OST6 complex (Saccharomyces cerevisiae, UniProt P39007)
T1 construct: were purified separately from strains expressing only one type of complex; made in house; host or cells: Saccharomyces cerevisiae, BY4742-derived strain ost3::LEU2MX6 OST4-1D4::kanMX6 YEp352-OST6
Assay: In vitro glycosylation assay, acceptor peptides, OST6 complex
Assay type: biochemical
Conditions: for OST6 complex activity compared with OST3 complex, in words: synthetic chitobiose-containing LLO, TAMRA-YANATS with 50 μM LLO C20 (Fig. 5A), TAMRA-DANYTK data not shown
Description: Figure 5 OST3 complex turns over both glycosylation substrates faster than the OST6 complex, but with similar substrate affinities.A, enzyme activity of OST3 and OST6 complexes. Reactions were performed with 25 μM peptide TAMRA-YANATS, 50 μM LLO C20, and varying concentrations of purified OST3 complex (blue) or OST6 complex (red). Glycopeptide product was measured by UPLC and initial rates of reaction were determined by linear regression of the initial phase of the reaction. Turnover rates were determined by linear regression of the initial rates of reaction measured across the enzyme concentrations of 0.01–0.1 μM for OST3 complex and 0.1–0.5 μM for OST6 complex. Error bars indicate standard deviations from the mean of three reaction sets (n = 3). B, synthetic LLO preferences of OST3 and OST6 complexes. Reactions were performed with 25 μM peptide TAMRA-YANATS, 50 μM of the indicated LLO (C15, C20, or C25) and 0.09 μM of purified OST3 complex (blue) or 0.5 μM OST6 complex (red). Turnover rates were determined by linear regression of the initial phase of the reaction and accounting for the enzyme concentration in the reaction. Error bars indicate standard deviations from the mean of three reactions (n = 3). C, quantification of kinetic parameters for the synthetic LLO C20. Reactions were performed with 25 μM peptide TAMRA-YANATS, varying concentrations of synthetic LLO C20, and either 0.1 μM purified OST3 complex (blue) or 0.5 μM OST6 complex (red). Turnover rates were determined by linear regression of the initial phase of the reaction and accounting for the enzyme concentration in the reaction. The mean of three reactions is shown and the data were fitted by nonlinear regression according to the Michaelis–Menten formula (R^2 = 0.9685 (OST3 complex), 0.9720 (OST6 complex)) using Prism. Error bars indicate standard deviations from the mean (n = 3). Asterisk indicates a data point not included in the Michaelis–Menten fitting, due to poor fitting. D, quantification of kinetic parameters for the peptide TAMRA-YANATS. Reactions were performed with 100 μM synthetic LLO C20, varying concentrations of peptide TAMRA-YANATS, and 0.1 μM purified OST3 complex (blue) or OST6 complex (red). Turnover rates were determined by linear regression of the initial phase of the reaction and accounting for the enzyme concentration in the reaction. The mean of three reactions is shown and the data were fitted by nonlinear regression according to the Michaelis–Menten formula (R^2 = 0.9794 (OST3 complex), 0.9214 (OST6 complex)) using Prism. Error bars indicate standard deviations from the mean (n = 3). Asterisk indicates data points not included in the Michaelis–Menten fitting, due to poor fitting. E, SDS-PAGE (14 % acrylamide) silver staining of 0.2 μg purified OST3 complex, OST6 complex, and OST3 complex purified from alg6Δ cells. Multiple bands of Ost1p and Wbp1p represent the fully and hypoglycosylated forms of the proteins. Ost4p is tagged with the 1D4 epitope for purification. F, enzyme activity of OST complexes. Reactions were performed with 100 μM peptide TAMRA-YANATS, 50 μM LLO C20, and varying concentrations from 0.1 to 0.3 μM of purified OST3 complex, OST6 complex, or OST3 complex purified from alg6Δ cells. Turnover rates were determined as in A by linear regression of the initial rates of reaction across the enzyme concentrations of 0.1–0.3 μM for each OST. Error bars indicate the standard deviation from the mean turnover rate of three reaction sets (n = 3).
TAMRA-labeled peptides with 5-TAMRA at the N-terminus and an amide group at the C-terminus were synthesized by WatsonBio Sciences. Unlabeled peptides (Table S1) were synthesized by Genscript Corp. and were designed so that the asparagine of the glycosylation sequon was in the middle (except for Peptide 8). Lyophilized peptides were dissolved in dimethyl sulfoxide (DMSO), unless specified otherwise, to a 3 mM stock solution and further diluted in ddH2O for reactions. […]

TAMRA-DANYTK-NH2 [fluorescently labeled hexapeptide TAMRA-DANYTK-NH2 as the acceptor peptide, reference compound]
OST6 complex activity compared with OST3 complex, in words: reduced

TAMRA-YANATS [shorter version of Peptide 5 of only six amino acid residues (TAMRA-YANATS)]
kcat/KM (0.1 μM OST6 complex, 100 μM LLO C20): 0.05 min^-1 μM^−s1 | kcat (apparent) (0.1 μM OST6 complex, 100 μM LLO C20, varying peptide, 30 °C, n = 3): 2.3 ± 0.2 min⁻¹ | Km (0.1 μM OST6 complex, 100 μM LLO C20, varying peptide, 30 °C, n = 3, read-out: KM (apparent)): 44.8 ± 5.7 µM | affinity for the peptide substrate, OST6 compared with OST3 complex, in words (100 μM LLO C20): similar | peptide turnover rate of OST6 complex compared with OST3 complex (100 μM LLO C20, TAMRA-YANATS varied): reduced six times | OST6 complex activity compared with OST3 complex, in words: drastically reduced
